According to patent US11572362B2, “Pyrrolo[1,2-b]pyridazine derivatives” (Gilead Sciences, Inc., priority 2018, dated 2023):

Columns and labels:
TNFα = assay: IRAK4 Monocyte TNFα Cell Based Assay; conditions: Monocyte; cryopreserved human monocytes, 50 pg/ml LPS, compound 1 hour pre-treatment, 4 hours stimulation, TNFα by TR-FRET
Description: IRAK4 Monocyte TNFα Cell Based Assay Procedure:
The cell suspension was then plated at a density of 5,000 cells/well onto black 384 well Greiner clear bottom plates. Plates were pre-spotted with test compounds and serially diluted in DMSO where 40 nL/well were delivered using the Echo 550 acoustic liquid dispenser (Labcyte®) for a final DMSO concentration of 0.1%. Plated cells were treated with compound for 1 hour at 37° C. Cells were then stimulated with 50 pg/ml of LPS (Sigma) excluding outside columns of plate used for unstimulated cell control wells. Cells were incubated for an additional 4 hours at 37° C. Cells were then spun out of the media and 5 μl of sample were taken and analyzed for total TNFα content using the TR-FRET Human TNFα detection system (CisBio). This system utilizes two labeled antibodies (cryptate and XL665) that bind to two different epitopes of the TNFα molecule and produce FRET signal proportional to the concentration of TNFα in the sample. Detection antibodies are mixed 50:50 and 5 μL were dispensed into each well. Plates were covered with clear seals and incubated at room temp overnight. The following morning plates were read using an Envision 2103 Multilabeled reader (PerkinElmer) with excitation/emission/FRET emission at 340 nm/615 nm/665 nm, respectively. Fluorescence intensities at 615 nm and 665 nm emission wavelengths were expressed as a ratio (665 nm/615 nm). Percent of control was calculated as follows: % Control=100×(RatioSample−Ratio0% Stimulation)/(Ratio100% Stimulation−Ratio0% Stimulation)
where unstimulated cells (0% stimulation) were the negative control and stimulated cells (100% stimulation) were used as the positive control.

IRAK4 = IRAK4 (Homo sapiens (Human), UniProt Q9NWZ3); assay: IRAK4 Biochemical Assay (TR-FRET/HTRF); conditions: IRAK4 enzyme 0.75 nM, 500 μM ATP, 2 μM STK1 peptide, 120 min
Sequence of IRAK4 (Q9NWZ3 whole entry): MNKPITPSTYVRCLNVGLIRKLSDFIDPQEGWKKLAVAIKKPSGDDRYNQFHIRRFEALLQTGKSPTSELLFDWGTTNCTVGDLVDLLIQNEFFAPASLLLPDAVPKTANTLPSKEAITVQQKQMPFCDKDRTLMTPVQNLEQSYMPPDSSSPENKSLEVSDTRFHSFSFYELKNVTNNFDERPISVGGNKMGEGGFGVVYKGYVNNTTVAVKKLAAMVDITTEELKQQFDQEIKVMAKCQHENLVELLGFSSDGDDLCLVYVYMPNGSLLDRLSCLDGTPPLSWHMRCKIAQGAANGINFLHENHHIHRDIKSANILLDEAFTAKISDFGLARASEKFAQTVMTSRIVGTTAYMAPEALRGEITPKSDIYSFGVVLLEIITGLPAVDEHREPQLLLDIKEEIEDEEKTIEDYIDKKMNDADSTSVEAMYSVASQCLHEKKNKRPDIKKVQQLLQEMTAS
Description: IRAK4 Biochemical Assay Procedure:
IRAK4 enzyme (Carna Biosciences, Chuo-ku, Kobe, Japan) activity was measured by detecting phosphorylated peptide substrate formation using an antibody against the phosphorylated peptide substrate. This is a time-resolved fluorescence resonance energy transfer (TR-FRET) immunoassay, based on the STK1 KinEASE Assay (Cisbio, Bedford, Mass.). The assay was designed as a simple two-step, endpoint assay (a 5 μl enzyme reaction followed by 5 μl stop and detect Solution) performed in ProxiPlate-384 Plus plates (Perkin Elmer, Waltham, Mass.). Staurosporine, a non-selective kinase inhibitor was used as a positive control. Compounds diluted in DMSO were spotted into 384 well plates using a Labcyte® Echo 550 Liquid Handling System prior to addition of IRAK4 enzyme and peptide substrate. Reaction solutions were delivered using a Multi-Flo (Bio-Tek Instruments). The enzyme and peptide solution was incubated with compound for 15 minutes at room temp before the reaction was initiated by the addition of ATP. The standard 5 μl reaction mixture contained 500 μM ATP, 2 μM peptide (STK1 Peptide), 0.75 nM of IRAK4 in reaction buffer (50 mM HEPES, pH 7.0, 0.02% NaN3, 0.01% BSA, 0.1 mM Orthovanadate, 5 mM MgCl2, 0.025% NP-40, 1 mM DTT). After 120 min of incubation at room temperature, 5 μl of Stop and Detect Solution (1:100 Cryptate labeled anti-phosphorylated peptide antibody solution and 125 nM Tracer in a 50 mM HEPES pH 7.0 detection buffer containing sufficient EDTA) was added. The plate was then further incubated for 60 minutes at room temperature and read on Envision 2103 Multilabeled reader (PerkinElmer) with excitation/emission/FRET emission at 340 nm/615 nm/665 nm, respectively. Fluorescence intensities at 615 nm and 665 nm emission wavelengths were expressed as a ratio (665 nm/615 nm). Percentage of inhibition was calculated as below: % Inhibition=100×(RatioSample−Ratio0% Inhibition)/(Ratio100% Inhibition−Ratio0% Inhibition)
The 0% inhibition value comes from control wells lacking inhibitor. The 100% inhibition value comes from control wells containing a saturating amount of known inhibitor staurosporine.

SMILES	EC50 (TNFα) [nM]	IC50 (IRAK4) [nM]
CC(C)(O)[C@H](F)CNC(=O)c1cnc(-c2ccc3cc(C#N)cnn23)cc1NC12CCC(c3nnc(C(F)F)o3)(CC1)OC2 [Compound 65, (R)-6-(3-cyanopyrrolo[1,2-b]pyridazin-7-yl)-4-((1-(5-(difluoromethyl)-1,3,4-oxadiazol-2-yl)-2-oxabicyclo[2.2.2]octan-4-yl)amino)-N-(2-fluoro-3-hydroxy-3-methylbutyl)nicotinamide]	23	1
CCn1cc([C@H]2CC[C@H](Nc3cc(-c4ccc5cc(C#N)cnn45)ncc3C(=O)NC[C@@H](F)C(C)(C)O)CC2)cn1 [Compound 12, 6-(3-cyanopyrrolo[1,2-b]pyridazin-7-yl)-4-(((1r,4R)-4-(1-ethyl-1H-pyrazol-4-yl)cyclohexyl)amino)-N-((R)-2-fluoro-3-hydroxy-3-methylbutyl)nicotinamide]	44	2
CC(C)(O)[C@H](F)CNC(=O)c1cnc(-c2ccc3cc(C#N)cnn23)cc1N[C@H]1CC[C@H](C2CCOCC2)CC1 [Compound 67, 6-(3-cyanopyrrolo[1,2-b]pyridazin-7-yl)-N-((R)-2-fluoro-3-hydroxy-3-methylbutyl)-4-(((1r,4R)-4-(tetrahydro-2H-pyran-4-yl)cyclohexyl)amino)nicotinamide]	41	1
CC(C)(O)[C@H](F)CNC(=O)c1cnc(-c2ccc3cc(C#N)cnn23)cc1NC12CCC(c3nncs3)(CC1)CC2 [Compound 61, (R)-4-((4-(1,3,4-thiadiazol-2-yl)bicyclo[2.2.2]octan-1-yl)amino)-6-(3-cyanopyrrolo[1,2-b]pyridazin-7-yl)-N-(2-fluoro-3-hydroxy-3-methylbutyl)nicotinamide]	4	< 1
Cc1nnc([C@H]2CC[C@H](Nc3cc(-c4ccc5cc(C#N)cnn45)ncc3C(=O)NC[C@@H](F)C(C)(C)O)CC2)o1 [Compound 39, 6-(3-cyanopyrrolo[1,2-b]pyridazin-7-yl)-N-((R)-2-fluoro-3-hydroxy-3-methylbutyl)-4-(((1r,4R)-4-(5-methyl-1,3,4-oxadiazol-2-yl)cyclohexyl)amino)nicotinamide]	33	< 1
CC(C)(O)[C@H](F)CNC(=O)c1cnc(-c2ccc3cc(C#N)cnn23)cc1N[C@H]1CC[C@H](n2cc(F)cn2)CC1 [Compound 25, 6-(3-cyanopyrrolo[1,2-b]pyridazin-7-yl)-4-(((1r,4R)-4-(4-fluoro-1H-pyrazol-1-yl)cyclohexyl)amino)-N-((R)-2-fluoro-3-hydroxy-3-methylbutyl)nicotinamide]	29	2
CC(C)(O)[C@H](F)CNC(=O)c1cnc(-c2ccc3cc(C#N)cnn23)cc1N[C@H]1CC[C@H](n2cc(C#N)cn2)CC1 [Compound 24, 4-(((1r,4R)-4-(4-cyano-1H-pyrazol-1-yl)cyclohexyl)amino)-6-(3-cyanopyrrolo[1,2-b]pyridazin-7-yl)-N-((R)-2-fluoro-3-hydroxy-3-methylbutyl)nicotinamide]	19	< 1
Cc1nnc(C23CCC(Nc4cc(-c5ccc6cc(C#N)cnn56)ncc4C(=O)NC[C@@H](F)C(C)(C)O)(CC2)CO3)o1 [Compound 64, (R)-6-(3-cyanopyrrolo[1,2-b]pyridazin-7-yl)-N-(2-fluoro-3-hydroxy-3-methylbutyl)-4-((1-(5-methyl-1,3,4-oxadiazol-2-yl)-2-oxabicyclo[2.2.2]octan-4-yl)amino)nicotinamide]	19	< 1
CC(C)(O)[C@H](F)CNC(=O)c1cnc(-c2ccc3cc(C#N)cnn23)cc1N[C@H]1CC[C@H](c2cn(C3CC3)nn2)CC1 [Compound 20, 6-(3-cyanopyrrolo[1,2-b]pyridazin-7-yl)-4-(((1r,4R)-4-(1-cyclopropyl-1H-1,2,3-triazol-4-yl)cyclohexyl)amino)-N-((R)-2-fluoro-3-hydroxy-3-methylbutyl)nicotinamide]	49	1
Cc1nnc(C23CCC(Nc4cc(-c5ccc6cc(C#N)cnn56)ncc4C(=O)NC[C@@H](F)C(C)(C)O)(CC2)CC3)o1 [Compound 60, (R)-6-(3-cyanopyrrolo[1,2-b]pyridazin-7-yl)-N-(2-fluoro-3-hydroxy-3-methylbutyl)-4-((4-(5-methyl-1,3,4-oxadiazol-2-yl)bicyclo[2.2.2]octan-1-yl)amino)nicotinamide]	15	< 1

More lines, now with the values ahead:

EC50 (TNFα) [nM]	IC50 (IRAK4) [nM]	SMILES
26	< 1	Cn1nnnc1[C@H]1CC[C@H](Nc2cc(-c3ccc4cc(C#N)cnn34)ncc2C(=O)NC[C@@H](F)C(C)(C)O)CC1 [Compound 16, 6-(3-cyanopyrrolo[1,2-b]pyridazin-7-yl)-N-((R)-2-fluoro-3-hydroxy-3-methylbutyl)-4-(((1r,4R)-4-(1-methyl-1H-tetrazol-5-yl)cyclohexyl)amino)nicotinamide]
18	1	Cn1cc([C@H]2CC[C@H](Nc3cc(-c4ccc5cc(C#N)cnn45)ncc3C(=O)NC[C@@H](F)C(C)(C)O)CC2)cn1 [Compound 7, 6-(3-cyanopyrrolo[1,2-b]pyridazin-7-yl)-N-((R)-2-fluoro-3-hydroxy-3-methylbutyl)-4-(((1r,4R)-4-(1-methyl-1H-pyrazol-4-yl)cyclohexyl)amino)nicotinamide]
114	7	Cc1nn(C(F)F)cc1C1CCC(Nc2cc(-c3ccc4cc(C#N)cnn34)ncc2C(=O)NC[C@@H](F)C(C)(C)O)CC1 (stereo partly drawn) [Compound 9, (R)-6-(3-cyanopyrrolo[1,2-b]pyridazin-7-yl)-4-((4-(1-(difluoromethyl)-3-methyl-1H-pyrazol-4-yl)cyclohexyl)amino)-N-(2-fluoro-3-hydroxy-3-methylbutyl)nicotinamide]
60	2	CC(C)(O)[C@H](F)CNC(=O)c1cnc(-c2ccc3cc(C#N)cnn23)cc1NC1CCC(c2ncn(C(F)F)n2)CC1 (stereo partly drawn) [Compound 21, (R)-6-(3-cyanopyrrolo[1,2-b]pyridazin-7-yl)-4-((4-(1-(difluoromethyl)-1H-1,2,4-triazol-3-yl)cyclohexyl)amino)-N-(2-fluoro-3-hydroxy-3-methylbutyl)nicotinamide]
37	3	CC(C)(O)[C@H](F)CNC(=O)c1cnc(-c2ccc3cc(C#N)cnn23)cc1N[C@H]1CC[C@H](c2cnn(C(F)(F)F)c2)CC1 [Compound 4, 6-(3-cyanopyrrolo[1,2-b]pyridazin-7-yl)-N-((R)-2-fluoro-3-hydroxy-3-methylbutyl)-4-(((1r,4R)-4-(1-(trifluoromethyl)-1H-pyrazol-4-yl)cyclohexyl)amino)nicotinamide]
89	2	CC(C)(O)[C@H](F)CNC(=O)c1cnc(-c2ccc3cc(C#N)cnn23)cc1N[C@H]1CC[C@H](c2cc(C(F)F)no2)CC1 [Compound 47, 6-(3-cyanopyrrolo[1,2-b]pyridazin-7-yl)-4-(((1r,4R)-4-(3-(difluoromethyl)isoxazol-5-yl)cyclohexyl)amino)-N-((R)-2-fluoro-3-hydroxy-3-methylbutyl)nicotinamide]
9	< 1	CC(C)(O)[C@H](F)CNC(=O)c1cnc(-c2ccc3cc(C#N)cnn23)cc1N[C@H]1CC[C@H](c2cnn(C(F)F)c2)CC1 [Compound 3, 6-(3-cyanopyrrolo[1,2-b]pyridazin-7-yl)-4-(((1r,4R)-4-(1-(difluoromethyl)-1H-pyrazol-4-yl)cyclohexyl)amino)-N-((R)-2-fluoro-3-hydroxy-3-methylbutyl)nicotinamide]
